Test results as given in patent US20240400529A1, “COMPOSITIONS AND METHODS FOR THE PREVENTION AND/OR TREATMENT OF MITOCHONDRIAL DISEASE, INCLUDING FRIEDREICH'S ATAXIA” (Stealth BioTherapeutics Inc., priority 2019, published 2024).
“Also recorded” adds a separate entry of the source. Read-outs that look alike come from different tables or passages of the source.

Tests used:
Nrf-2 responsive genes = assay: Nrf-2 Activation Assay (Nrf-2 Assay); assay type: cell-based, human; conditions: 24 hours; for activation of Nrf-2 responsive genes / pathway, in words: FIG. 7, 1 μM
Description: This assay was developed internally and was designed to determine if the novel test compounds disclosed herein active Nrf-2 and thereby promote resolution of inflammation by the mechanism believed to be responsible for the activity of omaveloxolone.
Briefly, GM03665 Eriedreich Ataxia patient fibroblasts were grown in 12 Well Plates (TC Cell+F) (Sarstedt, Nümbrecht Germany), at a density of 12×10^4 cells/per well in DMEM/F12 (Gibco, ThermoFisher Scientific, Waltham, MA, USA) cell media supplemented with 10% FBS and 1% Pen/Strep. Cells were left to rest overnight at 37° C. in a humidified atmosphere with 5% CO2 to allow attachment of the cells to the culture plate. Before continuing assay visual inspection of each well was done by light microscopy to detect any possible bacterial and fungal contamination. […] After incubation, cell media was removed and total RNA from the cells was isolated using E.Z.N.A.® Total RNA Kit I (Omega Bio-tek, Norcross, Georgia, USA) spin columns, and first-strand cDNA synthesis was carried out using a High Capacity cDNA Reverse Transcription Kit (Applied Biosystems™, Foster City, CA) following the manufacturer's instructions. qPCR analysis of gene expression was performed by mixing SYBR® Green Master Mix (Applied Biosystems™) with synthesized cDNA and forward and reverse primers. […] (60 cycles), and 95° C. for 60 seconds, followed by melt curve analysis at 72-95° C., 0.3° C./sec. The relative expression levels for each gene were calculated with the ΔΔCt method and normalized to the expression of REEP5 and SNRPD3 genes.

[1] = tested on: GM03665 cells (fibroblasts from a subject with Friedreich's ataxia); assay: RSL3 Toxicity Assay (RSL3 Assay); assay type: cell-based, human; conditions: for EC50: Homo sapiens, Fibroblast
Description: In brief, GM03665 cells (Coriell Institute) were seeded in 96-well plates (Sarstedt) in DMEM cell culture media containing 10% Fetal Bovine serum and 1% Penicillin-Streptomycin (Pen-Strep) antibiotic mix at the amount of 2×10^4/mL (100 μL or 2×10^3 cells per well). Cells were left to rest overnight at 37° C. in a humidified atmosphere with 5% CO2 to allow attachment of the cells to the culture plate. Test compounds were prepared as DMSO stocks (10 mM) and were serially diluted in cell culture media to obtain 2× working solutions. Cell media was discarded and replaced by 50 μL of test compound solutions or cell media with vehicle for control wells. Within 15 minutes, 2× working solution (4 μM) of 1S,3R-RSL3 (CAS #1219810-16-8, Sigma-Aldrich) (diluted from 5 mM DMSO stock in cell culture media) was added. Final reaction volume was 100 μL and final DMSO concentration in reaction was kept below 0.2% (v/v) and equal in all wells. Final RSL3 concentration was 2 μM and test compound final concentrations in reaction were up to 1000 nM. After 24 hours of incubation cell viability was assessed by MTT test. MTT (Sigma-Aldrich) solution 1 mg/mL in 1×PBS (pH=7,4) was prepared 1 hour before the assay and filtered through Filtropur S 0.2 filters (Sarstedt). Cell media with test compounds was discarded and 100 μL of MTT solution was added to cells. The plates were incubated for 2 hours at +37° C. Thereafter, the MTT solution was removed and 100 μL of isopropanol was added to dissolve sediment. Absorption at 570 and 650 nm was measured using Hidex Sense microplate reader.

[2] = tested on: HepG2 human hepatocarcinoma cells; assay: Rotenone ATP Assay (Complex I by-pass); assay type: cell-based; conditions: for Complex I by-pass activity / restoring ATP production, in words: summary statements also cover the Oxygraph assay
Description: This assay has been adapted from Haefeli R H, Erb M, Gemperli A C, Robay D, Courdier Fruh I, et al. (2011) NQO1-Dependent Redox Cycling of Idebenone: Effects on Cellular Redox Potential and Energy Levels. PLOS ONE 6 (3): e17963. HepG2 human hepatocarcinoma cells were co-incubated with the electron transport chain Complex I toxin rotenone+/−compounds of interest and the corresponding effect on ATP synthesis was measured with a bioluminescent substrate.
In brief, HepG2 cells were plated at 25,000 cells per well in low glucose (1 gram/Liter) DMEM medium+10% fetal calf serum and incubated for 24 hours. The following day, the media was decanted and subsequently replaced with glucose free/serum free DMEM which has been supplemented with 50 micromolar rotenone and compound of interest. Serial dilutions of compound were prepared in 3× dilutions beginning at 25 micromolar. The cells were incubated for 60 minutes in a humidified tissue culture incubator. Following incubation, ATP levels were quantified via bioluminescent assay (Promega […] Glo Assay kit) and readings were captured on a standard microplate reader.
ATP bioluminescence is plotted versus the log of compound of interest and data were used to generate EC50 values. Curve fitting was performed using a sigmoidal dose response curve fit function (GraphPad Prism software).
Robustness of curve fit was assessed as a quality control measure, with an R squared value of at least 0.80 being required for a successful curve fit. Compounds of interest showing an increase in ATP bioluminescence relative to vehicle control were verified in an independent biological replicate of n=3 technical replicates per dose.
This assay is a direct measure of the ability of compounds of interest to restore ATP production under conditions of inhibition of Complex I of the mitochondrial electron transport chain. As the majority of ATP produced via the electron transport chain is thought to derive from Complex I activity, significant impairment in Complex I function has dire biological consequences. Of note, Complex I mutations are thought to drive pathophysiology in multiple mitochondrial diseases, including Leigh syndrome and Leber's Hereditary Optic Neuropathy (LHON), while diminished Complex I activity and the resultant attenuation of ATP production has been shown in neurodegenerative diseases, including Friedreich's Ataxia, Parkinson's Disease and Huntington's Disease.

intact HepG2 cells = assay: Rotenone Oxygraph Assay (high-resolution respirometry); assay type: cell-based, human
Description: The Oxygraph-2k (O2k, OROBOROS INSTRUMENTS, Austria) was used for measurements of respiration of intact cells. The respirometry was performed in Dulbecco's Modified Eagle Medium (DMEM) high glucose without supplements. All experiments were performed at 37° C.
HepG2 cells (ATCC collection code HB-8065™) were cultured in 10 cm^2 culture dishes in DMEM high glucose medium supplemented with 10% fetal bovine serum (FBS) and 100 units/mL penicillin and 100 μg/mL streptomycin until approximately 90% confluence was reached. Immediately prior to performing the respirometric assay, the cells were washed with media without FBS, trypsinized and resuspended in DMEM high glucose without FBS.
The final concentration of intact cells in the O2k-chamber was 0.5.10^6/mL. After stabilization of respiration, the Complex I inhibitor, rotenone, at 1 μM final concentration was added to inhibit electron flux via Complex I. Then, compound to be tested was added at 10 μM final concentration, and the change in respiration rate of intact cells was monitored.

[3] = tested on: frataxin deficient fibroblasts (Friedreich's ataxia patient, GM03665); assay type: cell-based
lipoxygenase-15 enzyme = lipoxygenase-15 enzyme (Glycine max (Soybean) (Glycine hispida), UniProt P08170); assay: Lipoxygenase-15 Assay (LO-15 Assay); assay type: biochemical; conditions: reduced forms tested

Structure (SMILES) | activation of Nrf-2 responsive genes / pathway, in words (Nrf-2 responsive genes) | activity in the RSL3 Assay, in words [1] | RSL3 Assay EC50, nM (Table 7) ([1]; 2 μM RSL3, 24 hours, MTT) | Mean EC50, RSL3 Assay (Table 3) ([1]; 2 μM RSL3, 24 hours, MTT, mean of at least three measurements, unit from Table 7) | Rotenone ATP Assay EC50, nM (Table 7) ([2]; HepG2, 50 micromolar rotenone, 60 minutes) | Complex I by-pass activity / restoring ATP production, in words [2] | activity in the Rotenone Oxygraph Assay, in words (intact HepG2 cells) | Rotenone Oxygraph Assay % Increase (Table 7) (intact HepG2 cells; 1 μM rotenone, 10 μM compound) | Percent increase in ATP (Table 4, Rotenone Oxygraph Assay) (intact HepG2 cells; 1 μM rotenone, 10 μM compound, change in respiration rate of intact cells) | protection from BSO induced cell death / ferroptosis, in words [3] | Nrf-2 Assay (Table 7) (Nrf-2 responsive genes; 1 μM compound, qPCR of Nrf-2 responsive genes) | EC50 ([1]; 2 μM RSL3, 24 hours, MTT, mean of at least three measurements, unit from Table 7, read-out: Mean EC50, RSL3 Assay (Table 3)) [nM] | EC50 ([1]; 2 μM RSL3, 24 hours, MTT, read-out: RSL3 Assay EC50, nM (Table 7)) [nM] | lipoxygenase-15 inhibition, in words (lipoxygenase-15 enzyme)
CC1(C)CC[C@]2(NC(=O)C(C)(F)F)CC[C@]3(C)[C@H](C(=O)C=C4[C@@]5(C)C=C(C#N)C(=O)C(C)(C)[C@@H]5CC[C@]43C)[C@@H]2C1 [Omaveloxolone, reference compound] | positive and does | completely inactive | Inactive | Inactive | Inactive | not | inactive | Inactive | Inactive | ability to circumvent BSO induced cell death; also recorded: displayed anti-ferroptotic activity | – | – | – | –
COC1=C(OC)C(=O)C(CCCCCCCCCCO)=C(C)C1=O [Idebenone, reference compound] | – | – | – | – | – | ability to restore ATP production when Complex I is inhibited | – | 70.2 +/− 15% | – | very weakly active/borderline inactive | – | – | – | –
Cc1c(C)c2c(c(C)c1O)CC[C@@](C)(CCC=C(F)F)O2 [Compound 67, (R)-2-(4,4-difluorobut-3-en-1-yl)-2,5,7,8-tetramethylchroman-6-ol] | – | – | – | – | – | possess both activities | – | – | – | possess both activities | – | – | – | –
CC1=C(C)C(=O)C(CC[C@@](C)(O)COCCC[Si](C)(C)C)=C(C)C1=O [Compound M, (R)-2-(3-hydroxy-3-methyl-4-(3-(trimethylsilyl)propoxy)butyl)-3,5,6-trimethylcyclohexa-2,5-diene-1,4-dione] | do not activate | active; also recorded: able to prevent ferroptotic cell death | – | – | – | active | – | 56.6 +/− 11.3% | – | able to prevent ferroptotic cell death; also recorded: active | Inactive | 41.2 | 41.2 | best result; also recorded: effective inhibitors
CC1=C(C)C(=O)C(CC[C@](C)(O)CC/C=C(\C)CCC=C(F)F)=C(C)C1=O [Compound H, (R,E)-2-(11,11-difluoro-3-hydroxy-3,7-dimethylundeca-6,10-dien-1-yl)-3,5,6-trimethylcyclohexa-2,5-diene-1,4-dione] | do not activate | active; also recorded: able to prevent ferroptotic cell death | – | – | – | – | – | 54.3 +/− 13% | – | able to prevent ferroptotic cell death; also recorded: active | – | – | – | effective inhibitors
CC1=C(C)C(=O)C(CC[C@](C)(O)CC/C=C(\C)CC/C=C(\C)CCC=C2COC2)=C(C)C1=O [Compound E, 2-((R,6E,10E)-3-hydroxy-3,7,11-trimethyl-14-(oxetan-3-ylidene)tetradeca-6,10-dien-1-yl)-3,5,6-trimethylcyclohexa-2,5-diene-1,4-dione] | do not activate | active; also recorded: able to prevent ferroptotic cell death | – | – | – | possess both activities | – | 37.9 +/− 10.7% | – | possess both activities; also recorded: able to prevent ferroptotic cell death; also recorded: active | – | – | – | outside of the range of the assay
CC(C)=CCC/C(C)=C/CC/C(C)=C/CC[C@@](C)(O)CCC1=C(C)C(=O)C(C)=C(C)C1=O (stereo in doubt) [Vatiquinone, reference compound] | – | active | – | – | – | not | – | – | – | ability to circumvent BSO induced cell death | – | – | – | –
CC1=C(C)C(=O)C(CC[C@@](C)(O)CC/C=C(\C)CCC=C(F)F)=C(C)C1=O [Compound L, (S,E)-2-(11,11-difluoro-3-hydroxy-3,7-dimethylundeca-6,10-dien-1-yl)-3,5,6-trimethylcyclohexa-2,5-diene-1,4-dione] | do not activate | active; also recorded: able to prevent ferroptotic cell death | – | – | – | possess both activities | – | 58.6 +/− 15.5% | – | possess both activities; also recorded: able to prevent ferroptotic cell death; also recorded: active | – | – | – | effective inhibitors
